Counter-ions that a name gives are not always drawn.

For this assay, the target named is T1, SOS1 (Homo sapiens, UniProt Q07889).
T1 sequence (Q07889 1-1333): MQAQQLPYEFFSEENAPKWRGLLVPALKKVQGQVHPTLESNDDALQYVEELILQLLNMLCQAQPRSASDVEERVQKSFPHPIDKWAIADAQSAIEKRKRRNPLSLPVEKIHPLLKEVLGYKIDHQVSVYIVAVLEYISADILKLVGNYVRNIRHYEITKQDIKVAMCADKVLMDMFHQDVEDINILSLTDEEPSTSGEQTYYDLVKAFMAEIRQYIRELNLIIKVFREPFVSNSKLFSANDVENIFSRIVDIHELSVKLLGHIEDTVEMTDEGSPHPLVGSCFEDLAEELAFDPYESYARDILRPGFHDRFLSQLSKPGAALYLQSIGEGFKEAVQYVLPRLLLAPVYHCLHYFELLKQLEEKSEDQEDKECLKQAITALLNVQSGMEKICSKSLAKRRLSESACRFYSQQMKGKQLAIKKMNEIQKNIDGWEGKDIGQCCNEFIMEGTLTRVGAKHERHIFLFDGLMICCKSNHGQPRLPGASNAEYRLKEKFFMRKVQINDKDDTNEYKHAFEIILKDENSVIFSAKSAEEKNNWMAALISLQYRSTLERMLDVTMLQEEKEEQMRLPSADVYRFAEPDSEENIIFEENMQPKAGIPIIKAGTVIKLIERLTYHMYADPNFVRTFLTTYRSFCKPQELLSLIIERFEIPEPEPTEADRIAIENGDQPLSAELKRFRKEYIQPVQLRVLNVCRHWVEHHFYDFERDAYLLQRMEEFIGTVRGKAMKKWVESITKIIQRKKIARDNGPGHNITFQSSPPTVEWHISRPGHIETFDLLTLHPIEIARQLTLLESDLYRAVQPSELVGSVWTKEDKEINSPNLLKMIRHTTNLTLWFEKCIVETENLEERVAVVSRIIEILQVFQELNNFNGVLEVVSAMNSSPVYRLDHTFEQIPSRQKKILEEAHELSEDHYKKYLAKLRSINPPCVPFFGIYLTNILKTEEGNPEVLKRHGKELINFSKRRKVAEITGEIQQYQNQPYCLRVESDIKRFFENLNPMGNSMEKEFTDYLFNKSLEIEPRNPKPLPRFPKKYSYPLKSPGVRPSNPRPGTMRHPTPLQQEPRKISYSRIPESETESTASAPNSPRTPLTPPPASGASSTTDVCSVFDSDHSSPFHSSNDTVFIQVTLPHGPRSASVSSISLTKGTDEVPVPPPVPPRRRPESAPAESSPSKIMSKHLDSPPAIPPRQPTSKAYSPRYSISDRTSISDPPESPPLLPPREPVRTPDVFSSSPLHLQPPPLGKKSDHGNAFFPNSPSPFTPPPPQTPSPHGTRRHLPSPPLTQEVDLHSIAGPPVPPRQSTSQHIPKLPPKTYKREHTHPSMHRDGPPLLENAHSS
The assay is described as follows: biochemical.
The term IC50 denotes the concentration that inhibits the measured activity by half. A lower IC50 goes with higher potency. `C[C@@H](Nc1nnc(NC2CCN(C)C2)c2cc(=O)n(C3(C)CC3)cc12)c1cccc(C(F)F)c1F` (stereo partly drawn) [Example 126, 4-(((R)-1-(3-(difluoromethyl)-2-fluorophenyl)ethyl)amino)-6-(1-methylcyclopropyl)-1-((1-methylpyrrolidin-3-yl)amino)pyrido[3,4 d]pyridazin-7(6H)-one]: the IC50 amounted to 9.4 nM.

Compound `C[C@@H](Nc1nnc(N2CCN(C)CC2)c2cc(=O)n(C3CCOC3)cc12)c1cccc(C(F)F)c1F` (stereo partly drawn) [Example 127, 4-(((R)-1-(3-(difluoromethyl)-2-fluorophenyl)ethyl)amino)-1-(4-methylpiperazin-1-yl)-6-(tetrahydrofuran-3-yl)pyrido[3,4-d]pyridazin-7(6H)-one] registered an IC50 of 6.7 nM. The IC50 values of the last two compounds are within 1.5-fold of each other.

On to `C[C@@H](Nc1nnc(N2CCC(CO)C2)c2cc(=O)n(C3(C)CC3)cc12)c1cccc(C(F)F)c1F` (stereo partly drawn) [Example 128, 4-(((R)-1-(3-(difluoromethyl)-2-fluorophenyl)ethyl)amino)-1-(3-(hydroxymethyl)pyrrolidin-1-yl)-6-(1-methylcyclopropyl) pyrido[3,4-d]pyridazin-7(6H)-one], for which the half-inhibitory concentration (IC50) stood at 4.2 nM.

`C[C@@H](Nc1nnc(NC(C2CC2)C2CC2)c2cc(=O)n(C3(C)CC3)cc12)c1cccc(C(F)F)c1F` [Example 129, (R)-1-((dicyclopropylmethyl)amino)-4-((1-(3-(difluoromethyl)-2-fluorophenyl)ethyl)amino)-6-(1-methylcyclopropyl) pyrido[3,4-d]pyridazin-7(6H)-one] gave an IC50 of 6.1 nM.

In turn, `C[C@@H](Nc1nnc(N2CC(CO)C2)c2cc(=O)n(C3(C)CC3)cc12)c1cccc(C(F)F)c1F` [Example 131, (R)-4-((1-(3-(difluoromethyl)-2-fluorophenyl)ethyl)amino)-1-(3-(hydroxymethyl)azetidin-1-yl)-6-(1-methylcyclopropyl) pyrido[3,4-d]pyridazin-7(6H)-one] had a half-inhibitory concentration (IC50) of 4.6 nM.

The compound `Cc1c(C#N)cccc1[C@@H](C)Nc1nnc(N2CCN(C(C)C)CC2)c2cc(=O)n(C3CCN(C)CC3)cc12` [Example 132, (R)-3-(1-((1-(4-isopropylpiperazin-1-yl)-6-(1-methylpiperidin-4-yl)-7-oxo-6,7-dihydropyrido[3,4-d]pyridazin-4-yl)amino)ethyl)-2-methylbenzonitrile] gave a half-maximal inhibitory concentration (IC50) of 16.6 nM.

`C[C@@H](Nc1nnc(NC2CN3CCC2CC3)c2cc(=O)n(C3(C)CC3)cc12)c1cccc(C(F)F)c1F` (stereo partly drawn) [Example 133, 4-(((R)-1-(3-(difluoromethyl)-2-fluorophenyl)ethyl)amino)-6-(1-methylcyclopropyl)-1-(quinuclidin-3-ylamino)pyrido[3,4-d]pyridazin-7(6H)-one] gave an IC50 of 6.5 nM.

The compound `C[C@@H](Nc1nnc(NCC(F)F)c2cc(=O)n(C3(C)CC3)cc12)c1cccc(C(F)F)c1F` [Example 134, (R)-1-((2,2-difluoroethyl)amino)-4-((1-(3-(difluoromethyl)-2-fluorophenyl)ethyl)amino)-6-(1-methylcyclopropyl) pyrido[3,4-d]pyridazin-7(6H)-one] gave an IC50 of 9.5 nM. The IC50 values of the last two compounds are within 1.5-fold of each other.

Consider `Cc1c(C#N)cccc1[C@@H](C)Nc1nnc(N2CCN(C)CC2)c2cc(=O)n(C3CCN(C)CC3)cc12` [Example 135, (R)-2-methyl-3-(1-((1-(4-methylpiperazin-1-yl)-6-(1-methylpiperidin-4-yl)-7-oxo-6,7-dihydropyrido[3,4-d]pyridazin-4-yl)amino)ethyl)benz onitrile formate], for which the IC50 was determined as 14.1 nM.

`C[C@@H](Nc1nnc(N2CCN(C)CC2)c2cc(=O)n(N3CC4CCCC4C3)cc12)c1cccc(C(F)F)c1F` (stereo partly drawn) [Example 136, 4-(((R)-1-(3-(difluoromethyl)-2-fluorophenyl)ethyl)amino)-6-(hexahydrocyclopenta[c]pyrrol-2(1H)-yl)-1-(4-methylpiperazin-1-yl)pyrido[3,4-d]pyridazin-7(6H)-one formate] had an IC50 of 6.2 nM.

`C[C@@H](Nc1nnc(N2CC[C@@H](O)C2)c2cc(=O)n(C3(C)CC3)cc12)c1cccc(C(F)F)c1F` [Example 137, 4-(((R)-1-(3-(difluoromethyl)-2-fluorophenyl)ethyl)amino)-1-((R)-3-hydroxypyrrolidin-1-yl)-6-(1-methylcyclopropyl) pyrido[3,4-d]pyridazin-7(6H)-one formate]: the half-inhibitory concentration (IC50) came out at 4.8 nM.

The compound `C[C@@H](Nc1nnc(N2CCN(C)CC2)c2cc(=O)n(C)cc12)c1cccc(C(F)F)c1F` [Example 138, (R)-4-((1-(3-(difluoromethyl)-2-fluorophenyl)ethyl)amino)-6-methyl-1-(4-methylpiperazin-1-yl)pyrido[3,4-d]pyridazin-7(6H)-one formate] gave an IC50 of 10.7 nM. Against the preceding compound, the IC50 is about 2.2-fold higher.

Regarding `C[C@@H](Nc1nnc(N2CCC[C@@H]2CO)c2cc(=O)n(C3(C)CC3)cc12)c1cccc(C(F)F)c1F` [Example 139, 4-(((R)-1-(3-(difluoromethyl)-2-fluorophenyl)ethyl)amino)-1-((R)-2-(hydroxymethyl)pyrrolidin-1-yl)-6-(1-methylcyclopropyl) pyrido[3,4-d]pyridazin-7(6H)-one], the IC50 is 6.2 nM.

`C[C@@H](Nc1nnc(N2CCN(C3CCCC3)CC2)c2cc(=O)n(N3CC4CCCC4C3)cc12)c1cccc(C(F)F)c1F` (stereo partly drawn) [Example 140, 4-(((R)-1-(3-(difluoromethyl)-2-fluorophenyl)ethyl)amino)-6-(hexahydrocyclopenta[c]pyrrol-2(1H)-yl)-1-(4-cyclopentylpiperazin-1-yl)-pyrido[3,4-d]pyridazin-7(6H)-one] showed an IC50 of 8.5 nM. This IC50 and that of the compound before are within 1.5-fold of each other.

As to `Cc1cc(N)cc([C@@H](C)Nc2nnc(N3CCN(C)CC3)c3cc(=O)n(C4CC4)cc23)c1F` [Example 141, (R)-4-((1-(5-amino-2-fluoro-3-methylphenyl)ethyl)amino)-6-cyclopropyl-1-(4-methylpiperazin-1-yl)pyrido[3,4-d]pyridazin-7(6H)-one], inhibition was half-maximal at 7.8 nM (IC50).

Take `C[C@@H](Nc1nnc(N2CCN(C3CC3)CC2)c2cc(=O)n(N3CC4CCCC4C3)cc12)c1cccc(C(F)F)c1F` (stereo partly drawn) [Example 142, 4-(((R)-1-(3-(difluoromethyl)-2-fluorophenyl)ethyl)amino)-6-(hexahydrocyclopenta[c]pyrrol-2(1H)-yl)-1-(4-cyclopropylpiperazin-1-yl)-pyrido[3,4-d]pyridazin-7(6H)-one]: the IC50 turned out to be 10.6 nM. This IC50 and that of the compound before are within 1.5-fold of each other.

For the compound `Cc1cc(N)cc([C@@H](C)Nc2nnc(N3CCN(C4CC4)CC3)c3cc(=O)n(C4CC4)cc23)c1F` [Example 143, (R)-4-((1-(5-amino-2-fluoro-3-methylphenyl)ethyl)amino)-6-cyclopropyl-1-(4-cyclopropylpiperazin-1-yl)pyrido[3,4-d]pyridazin-7(6H)-one], half-maximal inhibition (IC50) was put at 11.5 nM.

`CCN1CCN(c2nnc(N[C@H](C)c3cc(N)cc(C)c3F)c3cn(C4CC4)c(=O)cc23)CC1` [Example 144, (R)-4-((1-(5-amino-2-fluoro-3-methylphenyl)ethyl)amino)-6-cyclopropyl-1-(4-ethylpiperazin-1-yl)pyrido[3,4-d]pyridazin-7(6H)-one formate] had an IC50 of 6.7 nM.

The compound `CCN1CCN(c2nnc(N[C@H](C)c3cccc(C#N)c3C)c3cn(C)c(=O)cc23)CC1` [Example 145, (R)-3-(1-((1-(4-ethylpiperazin-1-yl)-6-methyl-7-oxo-6,7-dihydropyrido[3,4-d]pyridazin-4-yl)amino)ethyl)-2-methylbenzonitrile formate] returned a half-inhibitory concentration (IC50) of 7.8 nM.

Source of the values: patent EP4722213A1, “NITROGEN-CONTAINING FUNCTIONAL GROUP-SUBSTITUTED PYRIDAZINOPYRIDONE DERIVATIVE AND USE THEREOF” (Sichuan Huiyu Pharmaceutical Co., Ltd., priority 2023, dated 2024).
